From US20050049293A1, “Use of cholinesterase antagonists to treat insulin resistance” (priority 2002, published 2005)
Like-named read-outs stand apart in the source and are kept apart here.

Experiments:
[1] = system: hepatic muscarinic receptors (insulin resistance); details: cats, cited from earlier work
[2] = system: HISS-dependent insulin resistance in sucrose-fed rats; test: RIST during neostigmine infusion in liquid sucrose-fed rats (Example 3); type: in vivo; details: portal vein infusion
Source text: Since both forms of diet produced the same degree of HDIR, the model of sucrose feeding using the liquid diet was used to determine whether this HDIR was reversible with the anticholinesterase agent, neostigmine.
The model of insulin resistance produced by the 35% liquid sucrose diet (in addition to regular rodent food pellets and normal drinking water) was identical to the protocol described above for the assessment of HDIR in sucrose-fed rats.
The surgical preparation was identical to that described above for sucrose-fed rats tested for HDIR. In addition, a laparotomy and portal vein cannulation were carried out. […] Following a laporotomy, the portal vein was cannulated.
After conducting a control RIST, neostigmine was infused into the portal vein for at least […] before a second RIST was conducted to determine if this agent could reverse the insulin resistance. The doses of neostigmine were 1 and 2 μg/kg/min.

[3] = system: atropine-induced HISS-dependent insulin resistance (HDIR); test: Rapid insulin sensitivity test (RIST) in atropine model of 75% HDIR, reversal with neostigmine (Example 1); details: neostigmine 1 μg/kg/min ipv
[4] = control RIST index 94.8±11.2 mg/kg

## COc1ccccc1CNCCCCCCNCCCCCCCCNCCCCCCNCc1ccccc1OC [methoctramine]
[1]; M2 selective antagonist
  Dose achieving a similar degree of insulin resistance: 10^−6 μmol/kg

## CN1CCN(CC(=O)N2c3ccccc3C(=O)Nc3cccnc32)CC1 [pirenzepine]
[1]; M1 muscarinic selective antagonist
  Dose achieving a similar degree of insulin resistance: 10^−7 mmol/kg

## CN(C)C(=O)Oc1cccc([N+](C)(C)C)c1 [neostigmine]
[2]; FIG. 3
  Reversal of insulin resistance at 1 μg/kg/min: did not produce a reversal of insulin resistance
[2]; [4]
  RIST index during neostigmine 1 μg/kg/min: 80.9 ± 27.3 mg/kg
  RIST index during neostigmine 2 μg/kg/min: 178.0 ± 17.7 mg/kg
[3]; after atropine-induced 75% HDIR (blocked state 90.5±[…])
  RIST index during constant infusion of neostigmine: 152.6 ± 15.2 mg/kg
[3]; FIG. 1
  Reversal of HDIR produced by atropine: able to reverse the HDIR
